# Assay results taken from paper PMC6934184, “Selective DNA-PKcs inhibition extends the therapeutic index of localized radiotherapy and chemotherapy” (The Journal of Clinical Investigation, 2019).
# Target: T1, LCK (Homo sapiens, UniProt P06239)
# T1 construct: purchased Thermo Fisher Scientific (Life Technologies) SelectScreen
# Assay: SelectScreen Z'LYTE
# Type: biochemical
# Procedure, shortened: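 SelectScreen broad panel; activity (Z'LYTE, Adapta) plus binding formats. ATP: Km app for CSF1R Z'LYTE; 10 for CAMK1 Adapta. Readout = % per kinase.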
# T1 sequence (P06239 whole entry): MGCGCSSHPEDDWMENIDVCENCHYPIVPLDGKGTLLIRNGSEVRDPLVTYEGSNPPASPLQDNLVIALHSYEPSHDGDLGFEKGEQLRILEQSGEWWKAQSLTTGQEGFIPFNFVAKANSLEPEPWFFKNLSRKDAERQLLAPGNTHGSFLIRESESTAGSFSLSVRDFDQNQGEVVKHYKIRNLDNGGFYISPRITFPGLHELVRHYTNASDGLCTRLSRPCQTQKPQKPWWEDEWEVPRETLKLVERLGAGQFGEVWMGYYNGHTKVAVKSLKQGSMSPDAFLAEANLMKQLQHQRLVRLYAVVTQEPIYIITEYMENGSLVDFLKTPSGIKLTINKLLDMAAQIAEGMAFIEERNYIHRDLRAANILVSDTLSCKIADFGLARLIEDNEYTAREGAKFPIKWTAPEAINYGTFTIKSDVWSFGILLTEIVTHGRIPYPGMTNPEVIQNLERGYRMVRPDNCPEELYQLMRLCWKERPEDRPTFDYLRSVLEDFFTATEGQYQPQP
compound,measurement,value
CN(C(=O)CN1CCOCC1)c1ccc2sc3c(-c4cccc5c(=O)cc(N6CC7CCC(C6)O7)oc45)cccc3c2c1 [NU5455],inhibition at 1 µM,9.6%
